We go through 19 compounds from patent US20090036492A1, “Novel Cercosporamide Derivative” (priority 2005, published 2009).

The experiment relates to male KK mice. Kind of experiment: Blood glucose lowering effect in diabetic KK mice. The class given is in vivo. Conditions: Mus musculus, po, 72 h, 15 to 20 weeks old, feed containing 0.03% of the compound, three days, blood glucose on the 3rd day vs control group, read-out: Blood glucose lowering efficacy (%). An excerpt: Six-week-old male KK mice were purchased from CLEA Japan, Inc. and then were fed until 15 to 20 weeks old and affected with diabetes. The mice were individually fed during the adaptation period and the test period, and water and feed (FR2, Funabashi Farm) were freely ingested.
At the start of the experiment, after body weight measurement, blood was collected from the tail vein of the mice into a heparin-coated glass tube and centrifuged, and then plasma was separated. The glucose level in the plasma was measured by Glucoloader GXT (A&T Corp.), and individuals having a blood glucose level of about 350 mg/dl or more were selected. Groups each having 3 to 4 mice were used for the experiment, and the mice were grouped to make the average body weight and the average blood glucose level similar. Each compound was administered to a compound administration group by feeding a mixture with feed containing 0.03% of the compound. A separate group in which the mice were fed only with feed was a control group.
The experiment period (drug administration period) was three days. The grouping day was the 0th day. On the 3rd day, body weight was measured and blood was collected from the tail vein to measure the blood glucose level.
The blood glucose lowering efficacy was determined by the following formula.
Blood glucose lowering efficacy=[(Control group blood glucose level−Compound administration group blood glucose level)/Control group blood glucose level]×100

As for `COc1cc(O)c2c(c1C(=O)NCc1c(C)cc(NS(=O)(=O)c3ccc(Cl)cc3Cl)cc1C)OC1=CC(O)=C(C(C)=O)C(=O)[C@]12C` [Example 111, (9aS)-8-Acetyl-N-(4-{[(2,4-dichlorophenyl)sulfonyl]amino}-2,6-dimethylbenzyl)-1,7-dihydroxy-3-methoxy-9a-methyl-9-oxo-9,9a-dihydrodibenzo[b,d]furan-4-carboxamide], the inhibition in vivo at 0.03 % in feed was determined as 31%. With `COc1cc(O)c2c(c1C(=O)NCc1c(C)ccc3ccc(F)cc13)OC1=CC(O)=C(C(C)=O)C(=O)[C@]12C` [Example 182, (9aS)-8-Acetyl-N-[(7-fluoro-2-methyl-1-naphthyl)methyl]-1,7-dihydroxy-3-methoxy-9a-methyl-9-oxo-9,9a-dihydrodibenzo[b,d]furan-4-carboxamide] the figure was 50%; with `CCc1ccc2ccc(Cl)cc2c1CNC(=O)c1c(OC)cc(O)c2c1OC1=CC(O)=C(C(C)=O)C(=O)[C@]12C` [Example 186, (9aS)-8-Acetyl-N-[(7-chloro-2-ethyl-1-naphthyl)methyl]-1,7-dihydroxy-3-methoxy-9a-methyl-9-oxo-9,9a-dihydrodibenzo[b,d]furan-4-carboxamide], 53%. With `CCc1ccc2c(F)cc(C)cc2c1CNC(=O)c1c(OC)cc(O)c2c1OC1=CC(O)=C(C(C)=O)C(=O)[C@]12C` [Example 195, (9aS)-8-Acetyl-N-[(2-ethyl-5-fluoro-7-methyl-1-naphthyl)methyl]-1,7-dihydroxy-3-methoxy-9a-methyl-9-oxo-9,9a-dihydrodibenzo[b,d]furan-4-carboxamide] the figure was 36%; with `COc1cc(O)c2c(c1C(=O)NCc1ccc(Oc3ccc(Cl)cc3Cl)c3ccccc13)OC1=CC(O)=C(C(C)=O)C(=O)[C@]12C` [Example 164, (9aS)-8-Acetyl-N-{[4-(2,4-dichlorophenoxy)-1-naphthyl]methyl}-1,7-dihydroxy-3-methoxy-9a-methyl-9-oxo-9,9a-dihydrodibenzo[b,d]furan-4-carboxamide], 43%; with `CCc1c(C)cc2ccccc2c1CNC(=O)c1c(OC)cc(O)c2c1OC1=CC(O)=C(C(C)=O)C(=O)[C@]12C` [Example 116, (9aS)-8-Acetyl-N-[(2-ethyl-3-methyl-1-naphthyl)methyl]-1,7-dihydroxy-3-methoxy-9a-methyl-9-oxo-9,9a-dihydrodibenzo[b,d]furan-4-carboxamide], 32%. As for `COc1cc(O)c2c(c1C(=O)NCc1c(C)cc(C)c3ccccc13)OC1=CC(O)=C(C(C)=O)C(=O)[C@]12C` [Example 171, (9aS)-8-Acetyl-1,7-dihydroxy-3-methoxy-9a-methyl-N-[(2,4-dimethyl-1-naphthyl)methyl]-9-oxo-9,9a-dihydrodibenzo[b,d]furan-4-carboxamide], the inhibition in vivo at 0.03 % in feed was found to be 47%. With `COc1cc(O)c2c(c1C(=O)NCc1c(C)ccc3c(F)cc(F)cc13)OC1=CC(O)=C(C(C)=O)C(=O)[C@]12C` [Example 176, (9aS)-8-Acetyl-N-[(5,7-difluoro-2-methyl-1-naphthyl)methyl]-1,7-dihydroxy-3-methoxy-9a-methyl-9-oxo-9,9a-dihydrodibenzo[b,d]furan-4-carboxamide] the figure was 40%. Turning to `CCC#CCOc1cc(C)c(CNC(=O)c2c(OC)cc(O)c3c2OC2=CC(O)=C(C(C)=O)C(=O)[C@]23C)c(C)c1` [Example 101, (9aS)-8-Acetyl-N-[2,6-dimethyl-4-(2-pentynyloxy)benzyl]-1,7-dihydroxy-3-methoxy-9a-methyl-9-oxo-9,9a-dihydrodibenzo[b,d]furan-4-carboxamide], the inhibition in vivo at 0.03 % in feed was 47%. With `COc1cc(O)c2c(c1C(=O)NCc1c(C)ccc3c(F)cccc13)OC1=CC(O)=C(C(C)=O)C(=O)[C@]12C` [Example 183, (9aS)-8-Acetyl-N-[(5-fluoro-2-methyl-1-naphthyl)methyl]-1,7-dihydroxy-3-methoxy-9a-methyl-9-oxo-9,9a-dihydrodibenzo[b,d]furan-4-carboxamide] the figure was 38%.

`COc1cc(O)c2c(c1C(=O)NCc1c(C)c(C)c(C)c3ccccc13)OC1=CC(O)=C(C(C)=O)C(=O)[C@]12C` [Example 69, (9aS)-8-Acetyl-1,7-dihydroxy-3-methoxy-9a-methyl-N-[(2,3,4-trimethyl-1-naphthyl)methyl]-9-oxo-9,9a-dihydrodibenzo[b,d]furan-4-carboxamide]: the inhibition in vivo at 0.03 % in feed is 47%.

With `CCCc1c(C)cc(C)c(C)c1CNC(=O)c1c(OC)cc(O)c2c1OC1=CC(O)=C(C(C)=O)C(=O)[C@]12C` [Example 94, (9aS)-8-Acetyl-1,7-dihydroxy-3-methoxy-9a-methyl-9-oxo-N-(2,3,5-trimethyl-6-propylbenzyl)-9,9a-dihydrodibenzo[b,d]furan-4-carboxamide], the inhibition in vivo at 0.03 % in feed amounted to 44%. Turning to `CCc1ccc2c(F)cc(F)cc2c1CNC(=O)c1c(OC)cc(O)c2c1OC1=CC(O)=C(C(C)=O)C(=O)[C@]12C` [Example 185, (9aS)-8-Acetyl-N-[(2-ethyl-5,7-difluoro-1-naphthyl)methyl]-1,7-dihydroxy-3-methoxy-9a-methyl-9-oxo-9,9a-dihydrodibenzo[b,d]furan-4-carboxamide], the inhibition in vivo at 0.03 % in feed was determined as 27%. The result for `CCc1ccc2cc(F)c(F)cc2c1CNC(=O)c1c(OC)cc(O)c2c1OC1=CC(O)=C(C(C)=O)C(=O)[C@]12C` [Example 188, (9aS)-8-Acetyl-N-[(2-ethyl-6,7-difluoro-1-naphthyl)methyl]-1,7-dihydroxy-3-methoxy-9a-methyl-9-oxo-9,9a-dihydrodibenzo[b,d]furan-4-carboxamide] reads 57%; that for `C=CCO/N=C(\C)C1=C(O)C=C2Oc3c(C(=O)NCc4c(C)cc(NS(=O)(=O)c5ccc(Cl)cc5Cl)cc4C)c(OC)cc(O)c3[C@]2(C)C1=O` [Example 162, (9aS)-8-[(1E)-N-(Allyloxy)ethaneimidoyl]-N-(4-{[(2,4-dichlorophenyl)sulfonyl]amino}-2,6-dimethylbenzyl)-1,7-dihydroxy-3-methoxy-9a-methyl-9-oxo-9,9a-dihydrodibenzo[b,d]furan-4-carboxamide], 43%. As for `CCc1ccc2ccc(F)c(F)c2c1CNC(=O)c1c(OC)cc(O)c2c1OC1=CC(O)=C(C(C)=O)C(=O)[C@]12C` [Example 193, (9aS)-8-Acetyl-N-[(2-ethyl-7,8-difluoro-1-naphthyl)methyl]-1,7-dihydroxy-3-methoxy-9a-methyl-9-oxo-9,9a-dihydrodibenzo[b,d]furan-4-carboxamide], the inhibition in vivo at 0.03 % in feed was found to be 50%.

For `COc1cc(O)c2c(c1C(=O)NCc1c(C)ccc3ccc(Cl)cc13)OC1=CC(O)=C(C(C)=O)C(=O)[C@]12C` [Example 181, (9aS)-8-Acetyl-N-[(7-chloro-2-methyl-1-naphthyl)methyl]-1,7-dihydroxy-3-methoxy-9a-methyl-9-oxo-9,9a-dihydrodibenzo[b,d]furan-4-carboxamide], the inhibition in vivo at 0.03 % in feed came out at 45%. The result for `CCC#CCOc1cc(C)c(CNC(=O)c2c(OC)cc(O)c3c2OC2=CC(O)=C(C(C)=O)C(=O)[C@]23C)c(C)c1C` [Example 103, (9aS)-8-Acetyl-1,7-dihydroxy-3-methoxy-9a-methyl-9-oxo-N-[2,3,6-trimethyl-4-(2-pentynyloxy)benzyl]-9,9a-dihydrodibenzo[b,d]furan-4-carboxamide] reads 62%; that for `CCc1cc(F)c2ccccc2c1CNC(=O)c1c(OC)cc(O)c2c1OC1=CC(O)=C(C(C)=O)C(=O)[C@]12C` [Example 187, (9aS)-8-Acetyl-N-[(2-ethyl-4-fluoro-1-naphthyl)methyl]-1,7-dihydroxy-3-methoxy-9a-methyl-9-oxo-9,9a-dihydrodibenzo[b,d]furan-4-carboxamide], 44%.
